The test system of assay [1] is ISG promoter, THP1-Lucia™ ISG cell line. Description: ISG promoter inhibition, THP1-Lucia ISG cell line. The format is cell-based. The following applies: 1 μg/ml Poly(dA:dT)/LyoVec, 24 hours, read-out: ISG, % inhibition degree. As for the experimental part: (§1) A THP1-Lucia™ NF-κB cell line (Invivogen) was used in an NF-κB inhibition experiment, and a THP1-Lucia™ ISG cell line was used in an ISG inhibition experiment. In the NF-κB inhibition experiment, cells were planted at a density of 1×10^4 cells/well in a 96-well plate, and in the ISG inhibition experiment, cells were planted at a density of 2×10^4 cells/well in a 96-well plate. The cells were treated with a compound diluted to 4-fold of a final concentration, and totally cultured for 30 minutes. NF-κB was treated with 100 ng/ml lipopolysaccharide (LPS), ISG was treated with a stimulator of 1 μg/ml Poly(dA:dT)/LyoVec, and NF-κB and ISG were cultured for 24 hours. 10 μl of a cell supernatant was taken and transferred to a 96-well plate. 50 μl of a Quanti-luc solution was aliquoted using an automatic aliquoter of a measurer (Envision Multilabel Plate Reader, Perkin Elmer, Inc.), and light emission signals were measured.

Assay [2] deals with IFN-α secretion, peripheral blood mononuclear cells (PBMCs). The assay can be described thus: Suppression of IFN-α secretion in ODN2216-treated PBMCs (ELISA). The format is cell-based. The following applies: PBMC, 500 nM ODN2216, 72 hours, read-out: IFN-α, % inhibition degree. As for the experimental part:
(§2) Peripheral blood mononuclear cells (PBMCs) isolated from whole blood were distributed in a 96-well plate. TNF-α was aliquoted at a density of 1×10^5 cells/well, IFN-α was aliquoted at a density of 2×10^5 cells/well, and TNF-α and IFN-α were treated with a compound diluted to 4-fold of a final concentration and totally cultured for 30 minutes. TNF-α was treated with 100 ng/ml lipopolysaccharide (LPS), IFN-α was treated with 500 nM ODN2216 (CpGTLR9 stimulator), and TNF-α and IFN-α were further cultured for 24 hours and 72 hours, respectively. An enzyme-linked immunosorbent assay (ELISA) was performed on TNF-α and IFN-α using an ELISA kit manufactured by BD Biosciences and an ELISA kit manufactured by PBL Assay Science, Inc., respectively. A cell supernatant and a standard drug were put into the ELISA plates and reacted for 2 hours. The plates were washed and a measurement antibody and streptavidin-HRP were sequentially added thereto. After the plates were washed, a TMB substrate was added thereto and reacted in a dark place. The reaction was stopped by adding a stop solution thereto, and the absorbance at 450 nm and 570 nm was measured using an absorber (OPTIMax tunable microplate reader, molecular devices). The experimental results are shown in [Table 2].

The target of assay [3] is T1, IRAK4 enzyme (Homo sapiens, UniProt Q9NWZ3).
T1 sequence (Q9NWZ3 1-460): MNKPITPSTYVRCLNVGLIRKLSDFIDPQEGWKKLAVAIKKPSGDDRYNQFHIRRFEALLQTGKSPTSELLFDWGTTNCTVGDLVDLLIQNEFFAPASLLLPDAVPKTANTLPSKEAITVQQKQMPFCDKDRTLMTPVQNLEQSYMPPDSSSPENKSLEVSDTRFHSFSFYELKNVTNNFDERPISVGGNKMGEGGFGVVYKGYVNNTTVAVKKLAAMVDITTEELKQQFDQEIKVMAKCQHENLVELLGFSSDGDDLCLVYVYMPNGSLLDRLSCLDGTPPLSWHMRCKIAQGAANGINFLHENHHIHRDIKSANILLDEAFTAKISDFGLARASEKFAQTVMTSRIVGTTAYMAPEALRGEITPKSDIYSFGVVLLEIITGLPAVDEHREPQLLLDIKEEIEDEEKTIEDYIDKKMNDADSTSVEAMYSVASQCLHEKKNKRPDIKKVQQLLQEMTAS
The assay can be described thus: IRAK4 enzyme inhibition degree (bead-based kinase assay, peptide substrate BMKC-2, 100 μM ATP). The class given is biochemical. The note with it: for inhibition at 1 µM: compound 1 μM. As for the experimental part:
2.5 μl of a compound diluted to 4-fold of a final concentration was put into a 384-well white plate (low volume). 2.5 μl of 0.4 ng/μl IRAK4 enzyme was added thereto, and the resulting mixture was totally reacted for 10 minutes. 5 μl of a mixed liquid of a 6 μM peptide substrate (BMKC-2) and 100 μM ATP was added thereto, the resulting mixture was reacted at room temperature for 60 minutes, then 2.5 μl of 10 mM EDTA was added thereto, and the resulting mixture was reacted again for 10 minutes. 40 nM anti-phospho Thr antibody was aliquoted to 2.5 μl each, 5 μl of a mixed solution of a 160 μl/ml acceptor bead and a donor bead was added thereto, and then the resulting mixture was reacted at room temperature for 60 minutes. Fluorescence signals were measured using a bead experimental apparatus (Fusion alpha-FP Microplate Reader, Perkin Elmer Inc.).
From the detected signal, an activity inhibition rate [% inhibition degree=(the average value of a compound−the average value of a negative control)/(the average value of a positive control−the average value of a negative control)×100] was calculated, and is shown in [Table 1]. Further, a % inhibition degree of the compound at each concentration was obtained, and then a 50% inhibition concentration (IC50 value) was analyzed by a non-linear regression analysis.

The subject of assay [4] is TNF-α secretion, peripheral blood mononuclear cells (PBMCs). Description: Suppression of TNF-α secretion in LPS-treated PBMCs (ELISA). The class given is cell-based. The following applies: PBMC, 100 ng/ml LPS, 24 hours, read-out: TNF-α, % inhibition degree. As for the experimental part: as §2
A general note: ELISA stands for enzyme-linked immunosorbent assay.

The subject of assay [5] is NF-κB promoter, THP1-Lucia™ NF-κB cell line. Description: NF-κB promoter inhibition, THP1-Lucia NF-κB cell line. The note with it: 100 ng/ml LPS, 24 hours, read-out: NF-κB, % inhibition degree. The class given is cell-based. As for the experimental part:
as §1

The source of these data is patent US12378250B2, “Tricyclic compound as IRAK4 inhibitor” (KOREA RESEARCH INSTITUTE OF CHEMICAL TECHNOLOGY, priority 2018, dated 2025).

A word on the inhibition: it is the drop in the measured response relative to a control, in per cent. What is called IC50 is the point on the concentration scale where inhibition reaches its midpoint. Low values mean greater potency in that assay, high ones weaker potency in that assay.

Bounds are passed on as bounds.

With `N#Cc1cccc(-c2ccc3[nH]c4ncnc(N[C@H]5CC[C@H](N6CCOCC6)CC5)c4c3c2)c1` [Compound 6aak, 3-(4-((trans-4-morpholinocyclohexyl)amino)-9H-pyrimido[4,5-b]indol-6-yl) benzonitrile], the inhibition at 0.1 µM in assay [1] was less than 1%; in assay [2], 53%; in assay [4] it was 16%; in assay [5] it was less than 1%. Further, the inhibition at 1 µM in assay [1] worked out at 30%; in assay [2] it was 98%; in assay [3] it was 98%; in assay [4], 70%; in assay [5] it was 37%. Further, the IC50 in assay [3] came out at 104 nM.
Take `COc1cccc(-c2ccc3[nH]c4ncnc(N[C@H]5CC[C@H](N6CCOCC6)CC5)c4c3c2)c1` [Compound 6aaj, 6-(3-methoxyphenyl)-N-(trans-4-morpholinocyclohexyl)-9H-pyrimido[4,5-b]indole-4-amine]: the inhibition at 0.1 µM is 14% in assay [1], 6.4% in assay [2], 3.2% in assay [4] and less than 1% in assay [5]. The inhibition at 1 µM in assay [1] worked out at 20%; in assay [2] it was 56%; in assay [3], 99%; in assay [4], 30%; in assay [5] it was 33%. It took 159 nM to reach half-maximal inhibition in assay [3] (IC50).
As to `Oc1cncc(-c2ccc3[nH]c4ncnc(N[C@H]5CC[C@H](N6CCOCC6)CC5)c4c3c2)c1` [Compound 6aae, 5-(4-((trans-4-morpholinocyclohexyl)amino)-9H-pyrimido[4,5-b]indol-6-yl)pyridine-3-ol], the inhibition at 0.1 µM in assay [1] is 4%; in assay [2], 48%; in assay [4], 12%; in assay [5], less than 1%. Moreover, the inhibition at 1 µM in assay [1] amounted to 29%; in assay [2], 92%; in assay [3] it was 100%; in assay [4], 53%; in assay [5], 40%. Moreover, the half-maximal inhibitory concentration (IC50) in assay [3] was 2 nM.
For the compound `c1cc(-c2ccc3[nH]c4ncnc(Nc5ccc(N6CCNCC6)cc5)c4c3c2)ccn1` [Compound 6agba, N-(4-(piperazin-1-yl)phenyl)-6-(pyridin-4-yl)-9H-pyrimido[4,5-b]indole-4-amine], the inhibition at 0.1 µM in assay [1] was 6%; in assay [2], 56%; in assay [4] it was 26%; in assay [5], less than 1%. The inhibition at 1 µM in assay [1] came out at 8%; in assay [2] it was 74%; in assay [3], 42%; in assay [4] it was 87%; in assay [5], 6%. In addition, the 50% inhibitory concentration (IC50) in assay [3] was found to be 1190 nM.
On to `CN(C)CCOc1cncc(-c2ccc3[nH]c4ncnc(N[C@H]5CC[C@H](N6CCOCC6)CC5)c4c3c2)c1` [Compound 6aag, 6-(5-(2-(dimethylamino)ethoxy)pyridin-3-yl)-N-(trans-4-morpholinocyclohexyl)-9H-pyrimido[4,5-b]indole-4-amine], for which the inhibition at 0.1 µM in assay [1] amounted to 20%; in assay [2], 6.4%; in assay [4], 16.7%; in assay [5], 12%. Besides, the inhibition at 1 µM is 52% in assay [1]; 89.5% in assay [2]; 82% in assay [3]; 51.4% in assay [4]; 37% in assay [5]. The same compound came in with an IC50 in assay [3] of 31 nM.
In the case of `Fc1cc(F)cc(-c2ccc3[nH]c4ncnc(N[C@H]5CC[C@H](N6CCOCC6)CC5)c4c3c2)c1` [Compound 6aal, 6-(3,5-difluorophenyl)-N-(trans-4-morpholinocyclohexyl)-9H-pyrimido[4,5-b]indole-4-amine], the inhibition at 0.1 µM in assay [1] is 1%; in assay [2] it was 18%; in assay [4] it was 13%; in assay [5] it was less than 1%. The inhibition at 1 µM in assay [1] was determined as 17%; in assay [2] it was 70%; in assay [3], 99%; in assay [4], 57%; in assay [5], 15%. In assay [3], this compound gave an IC50 of 151 nM.
Consider `COc1cncc(-c2ccc3[nH]c4nccc(N[C@H]5CC[C@H](N6CCN(S(C)(=O)=O)CC6)CC5)c4c3c2)c1` [Compound 17c], for which the inhibition at 0.1 µM came out at 2% in assay [1], 23% in assay [2], 7% in assay [4] and 2% in assay [5]. Moreover, the inhibition at 1 µM in assay [1] was determined as 52%; in assay [2] it was 99%; in assay [3], 100%; in assay [4], 88%; in assay [5], 53%. The same compound displayed a 50% inhibitory concentration (IC50) in assay [3] of 32.6 nM.
`CN(C)[C@H]1CC[C@H](Nc2ncnc3[nH]c4ccc(-c5cncc(F)c5)cc4c23)CC1` [Compound 6aba, trans-N1-(6-(5-fluoropyridin-3-yl)-9H-pyrimido[4,5-b]indol-4-yl)-N4,N4-dimethylcyclohexane-1,4-diamine]: the inhibition at 0.1 µM stood at 33% in assay [1], 3.4% in assay [2], 39.1% in assay [4] and 40% in assay [5]. For the same compound, the inhibition at 1 µM amounted to 83% in assay [1]; 81.3% in assay [2]; 83% in assay [3]; 73.3% in assay [4]; 87% in assay [5]. Moreover, half-maximal inhibition in assay [3] (IC50) was put at 4 nM.
As to `COc1cncc(-c2ccc3[nH]c4nccc(N[C@H]5CC[C@H](N6CCOCC6)CC5)c4c3c2)c1` [Compound 17b, 6-(5-methoxypyridin-3-yl)-N-(trans-4-morpholinocyclohexyl)-9H-pyrimido[2,3-b]indole-4-amine], the inhibition at 0.1 µM in assay [1] was 4%; in assay [2], 76%; in assay [4] it was 12%; in assay [5], 14%. Besides, the inhibition at 1 µM in assay [1] was determined as 80%; in assay [2], 110%; in assay [3], 100%; in assay [4] it was 63%; in assay [5], 62%. In assay [3], it took 7.2 nM to reach half-maximal inhibition (IC50).
